Where no end group is shown, it is not given here.
Test system: rabbit esophageal circular smooth muscle tissue constructs
Assay: Real time isometric force generation of bioengineered esophageal smooth muscle constructs
Assay type: cell-based
Details: isometric force transducer, tissue bath 37° C., constructs taken off chitosan scaffold, stretch baseline set to zero
Description: Tubular esophageal tissue was tissue-engineered to mimic the mechanical and physiological function of a native esophagus. Several concentrically aligned esophageal circular smooth muscle tissue constructs were bioengineered using collagen hydrogel. Three-dimensional smooth muscle tissue constructs were bioengineered. Rabbit esophageal constructs were bioengineered by laying down 5×10^5 rabbit esophageal circular smooth muscle cells in collagen gel on a Sylgard-coated plate with a central post. The smooth muscle constructs were placed around a 2.5 cm long hollow chitosan tube and biodegradable surgical glue was applied between the smooth muscle constructs and along their circumference. The constructs were maintained around the scaffold in culture for 5 days. The constructs were taken off the scaffold and tested to determine cholinergic contraction in response to Acetylcholine (Ach) and relaxation in response to vasoactive intestinal peptide (VIP). An isometric force transducer (Harvard Apparatus, Holliston, Mass.) was used to record real time force generated by the constructs. The constructs were kept incubated in a warm tissue bath keeping the tissue samples at conditions of 37° C.±1° C. The bioengineered tissue constructs were taken off the scaffold at day 15 for force generation measurement. […]

Molecule | contraction (change in force generation) (FIG. 1) [μN] | relaxation (change in force generation) (FIG. 2) [μN]
CC(=O)OCC[N+](C)(C)C [Ach, Acetylcholine] | 45 | –
vasoactive intestinal peptide (HSDAVFTDNYTRLRKQMAVKKYLNSILN; ends and bridges not checked; UniProt P01282 125-152, looked up) [VIP, relaxant peptide used to test construct relaxation] | – | −35
